Assay results: publication PMC6696115, “Characterization of Antimicrobial, Antioxidant, and Leishmanicidal Activities of Schiff Base Derivatives of 4-Aminoantipyrine” (Molecules, 2019)
Converted amounts (≈) assume the structure as drawn.

Legend:
[1] = tested on: Enterococcus faecalis ATCC 29212; assay: antimicrobial serial microdilution, E. faecalis; type: cell-based; details: Enterococcus faecalis, ATCC29212; serial microdilution, 37 °C, 24 h
Description: (§1) The in vitro antifungal and antimicrobial activities were determined by testing the Schiff bases against the fungi Saccharomyces cerevisiae, Candida albicans, and Aspergillus niger and the bacteria Staphylococcus aureus, Enterococcus faecalis (Gram-positive), Pseudomonas aeruginosa, and Escherichia coli (Gram-negative).
(§2) The bacterial inoculum was prepared by emulsifying overnight colonies from an agar medium in broth (Mueller–Hinton broth). The suspensions were adjusted to a final organism density of 5 × 10^5 colony former units (cfu)/mL. […] The emulsifying of A. niger cultures was done by pouring 5 mL of saline and 0.1% of polysorbate 80 over the Petri dishes. Then, 100 µL of this suspension were diluted in 5 mL of saline and adjusted to an optical density of 0.1 at 530 nm. For S. cerevisiae, fresh exponential YPAD (yeast extract 1%, peptone 2%, adenine 0.004%, […]) cultures were adjusted to an optical density of 0.5 at 600 nm, and then diluted to the equivalent of 1 × 10^4 cells/mL (10^−3 dilution). Stock solutions of Schiff bases were prepared by dissolving them in DMSO at 10 mg/mL. […] The range of concentrations used was empirically selected for each organisms and the Schiff base. Drug sensitivities were assayed by serial dilutions in 96-well plates as previously described. A row with media and cells but without drug was the positive control. The blank was done by preparing a row with media and drugs, but without cells. Plates were fitted with a tight lid before incubation to prevent desiccation. […] The minimum bactericidal concentration (MBC) and fungicidal concentration (MFC) were determined by spreading 100 µL of culture from each well onto a plate (Mueller–Hinton agar for bacteria, Sabouraud dextrose agar for fungi except S. cerevisiae, and YPAD for S. cerevisiae).

[2] = tested on: Escherichia coli ATCC 25922; assay: antimicrobial serial microdilution, E. coli; type: cell-based; details: serial microdilution, 37 °C, 24 h
Description: as §1, §2

P. aeruginosa ATCC 27853 = assay: antimicrobial serial microdilution, P. aeruginosa; type: cell-based; details: Pseudomonas aeruginosa, ATCC27853, 37 °C, 24 h
Description: as §1, §2

[3] = tested on: S. cerevisiae wild type (BY4741); assay: growth inhibition (OD600) of wild-type yeast, oxidative effect; type: cell-based, Saccharomyces cerevisiae
Description: (§3) Next, we wanted to evaluate the oxidative activity. To do this, drop test assays were performed with wild-type (W303 and BY4741 backgrounds) and sod1 (BY4741 background) yeast cells in the presence of 200 µg/mL of the analyzed Schiff bases (Figure 3). The SOD1 gene encodes superoxide dismutase 1, an enzyme with a major role in detoxifying ROS species generated during metabolism or because of environmental exposure. sod1 mutant cells are unprotected against oxidative agents, decreasing survival in their presence.
(§4) (A) Drop test of serial dilution of yeast cell cultures (wild type from genetic background W303, wild type from genetic background BY4741, and sod1 mutant from genetic background BY4741) exposed to Schiff bases at 200 µg/mL. A control without drug and with 2% DMSO are included.
as §2

[4] = tested on: S. cerevisiae sod1 mutant (BY4741); assay: growth inhibition (OD600) of sod1 mutant yeast, oxidative effect; type: cell-based, Saccharomyces cerevisiae
Description: as §3, §4, §2

[5] = tested on: S. cerevisiae sod1 mutant cells (background BY4741); assay: drop test, sod1 mutant yeast; type: cell-based, Saccharomyces cerevisiae; details: 200 µg/mL, 48 h, 25 °C, compared to control
Description: as §3, with “presence. […] Also, wild-type cells are shown as control, unaffected by the Schiff bases.” for “presence.”
For the drop test with S. cerevisiae, wild-type strain (background W303), and wild type and sod1 mutant cells (background BY4741) were grown overnight in YPAD media until an optical density of 0.5 at 600 nm was reached (equivalent to 1 × 10^7 cells/mL). Three serial dilutions were prepared and 5 µL of each was spotted onto a plate (approximately 1 × 10^5, 1 × 10^4, 1 × 10^3, and 1 × 10^2 cells/spot). YPAD plates were supplemented with 200 µg/mL of each Schiff base, and one plate supplemented with 2% DMSO and one plate with YPAD without any drug were used as controls. Plates were incubated at 25 °C for 24, 48, and 72 h.

For `Cc1c(N=Cc2ccccc2O)c(=O)n(-c2ccccc2)n1C` [Compound 3b, 4-(2-Hydroxybenzylideneamino)-1,5-dimethyl-2-phenyl-1H-pyrazol-3(2H)-one], the MIC [1] was > 200 mg/L, the IC50 ([2]; Escherichia coli, ATCC25922) was 12.1 mg/L (≈ 39.4 µM) and the MIC ([2]; Escherichia coli, ATCC25922) was 49.8 ± 5 mg/L (≈ 162 µM). The “NIC E. coli” value ([2]; noninhibitory concentration) was 2.8 ± 0.5 µg/mL, the MIC (P. aeruginosa ATCC 27853) was > 200 mg/L and the IC50 ([3]; Saccharomyces cerevisiae, unit inferred) was 192 mg/L (≈ 625 µM). The “NIC Wt” value ([3]; unit not given) was 178.0 ± 2.1, the “MIC Wt” value ([3]; unit not given, in µg/mL) was 208.2 ± 4.0 and the IC50 ([4]; Saccharomyces cerevisiae, read-out: IC50 sod1) was 101 mg/L (≈ 328 µM). For the same compound, the “NIC sod1” value ([4]; sod1 mutant BY4741, unit not given) was 53.3 ± 0.1, the “MIC sod1” value ([4]; sod1 mutant BY4741, unit not given, in µg/mL) was 164.1 ± 0.1 and the “sensitivity of sod1 cells in drop test” value [5] was “sensitive”.
